Experimental findings from publication PMC4428071, “Structural basis for epitope masking and strain specificity of a conserved epitope in an intrinsically disordered malaria vaccine candidate” (Scientific Reports, 2015) are described below.

For one series, the target named is mAb 6D8. Kind of series: SPR binding of synthetic MSP2 peptides to immobilized (captured) mAb 6D8. Further details: species or system mouse. As to conditions: for Kd: Biacore T200, mAb 6D8 captured with Mouse Antibody Capture kit, peptides in 20 mM HEPES, 150 mM NaCl, 3 mM EDTA, 0.05 % Tween20, pH 7.4, from concentration dependence of steady-state responses, ± standard deviation of three replicate experiments; for Binding to immobilized mAb 6D8 (in words): at up to 1 μM peptide concentration. The procedure:
To explore the structural basis of epitope masking, it was necessary to first define the minimal epitope of mAb 6D8. […]
(§1) mM scale) using a three-fold equivalent of FMOC-protected amino acid, HCTU and DIPEA in DMF per cycle. Each amino acid coupling was carried out for 30 min at room temperature with continuous shaking. Chain deprotection was carried out in 50% piperidine in DMF for 2 min. Each step in the cycle was terminated with an extensive DMF wash. Peptides were N-terminally acetylated after the last coupling and deprotected, using a three-fold equivalent of acetic anhydride and Dipea in DMF.
The fully assembled peptides were dried under vacuum and cleaved for 3 h in a mixture of TFA:TIPS:water (95:2.5:2.5 v/v). The cleaved material was precipitated in cold diethyl ether overnight at -20 °C. T he insoluble peptide material was spun down at 4,000 rpm for 30 min at 4 °C and the pellet washed twice in cold diethyl ether prior to removal of the organic phase.
The crude peptide mixture was resuspended in 50% acetonitrile/0.1% TFA, filtered and freeze-dried prior to HPLC purification.
2 mg/mL for HPLC purification. […]
linear gradient of 5 to 40% of solvent B (90% acetonitrile / 9.9% water / 0.1% TFA) against solvent A (0.1% TFA in water) over 40 min. […]
mass spectrometry (LC-MS).
Affinity measurements. […]
Where low peptide solubility precluded ITC measurements, affinity was estimated by surface plasmon resonance (SPR) (Biacore T200, GE Healthcare) using a Mouse Antibody Capture kit (GE Healthcare). Synthetic peptides were resuspended in running buffer (20 mM HEPES, 150 mM NaCl, 3 mM EDTA, 0.05 % Tween20, pH 7.4) and injected over the 6D8-captured
(SPR reads the build-up and loss of mass on a sensor chip optically.)

Series [1] can be described thus: Aggregation tendency of peptides on resuspension for HPLC purification. Type of series: physicochemical. As to conditions: crude peptide resuspended for HPLC purification; had to be resuspended in 10 mM acetic acid at 1 mg/mL. Here is the method: as §1
The fully assembled peptides were dried under vacuum and cleaved for 3 h in a mixture of TFA:TIPS:water (95:2.5:2.5 v/v). The cleaved material was precipitated in cold diethyl ether overnight at -20 °C. […]
MSP2 peptides were purified on a reverse-phase C18 column (Zorbax, 10 x 300 mm) using a linear gradient of 5 to 40% of solvent B (90% acetonitrile / 9.9% water / 0.1% TFA) against solvent A (0.1% TFA in water) over 40 min. The purity of MSP2 peptides was assessed by mass spectrometry (LC-MS).
Affinity measurements. Binding affinity constants of 6D8 antibodies (IgG and scFv) for synthetic peptides and recombinant allelic forms of MSP2 were determined by isothermal titration calorimetry (Microcal ITC-200, GE Healthcare) using either murine mAb 6D8 produced and affinity-purified by the Walter and Eliza Hall Institute antibody facility3 or 6D8 scFv. […]

Turning to Ac-AYNMSIRR-NH2 [MSP2_15-22], on mAb 6D8, binding was characterised by a dissociation constant (Kd) of 87 ± 21 nM and the “Binding to immobilized mAb 6D8 (in words)” value was “detectable binding”.
Consider Ac-FINNAYNMSIRRS-NH2 [MSP2_11-23], for which, at mAb 6D8, the Kd came out at 6 ± 3 nM.
The same measure, in the same setting: the result for Ac-NAYNMSIRR-NH2 [MSP2_14-22] reads 6 ± 2 nM; that for Ac-AYNMSIRRS-NH2 [MSP2_15-23], 34 ± 12 nM.
Consider “INNAYNMS [MSP2_12-19, N-acetylated, C-amidated synthetic peptide, residues 12-19 of MSP2]”, for which, in series [1], the Tendency to aggregate entry is listed as “high tendency”.
On the same count and under the same terms, to “NNAYNMSI [MSP2_13-20, N-acetylated, C-amidated synthetic peptide, residues 13-20 of MSP2]” belongs “high tendency”.
Regarding “YNMSIRRS [MSP2_16-23, N-acetylated, C-amidated synthetic peptide, residues 16-23 of MSP2]”, the “Binding to immobilized mAb 6D8 (in words)” value with mAb 6D8 is reported as “abolishes binding”.
On the same count and under the same terms, the result for “NAYNMSIR [MSP2_14-21, N-acetylated, C-amidated synthetic peptide, residues 14-21 of MSP2]” reads “abolishes binding”.

What is called Kd is the concentration at which binding is half-saturated. A high value points to lower affinity.
